For test [1], the target named is T1, Acetylcholinesterase (Electrophorus electricus, UniProt O42275). In words: Inhibition of electric eel AChE using acetylthiocholine iodide as substrate preincubated for 20 mins followed by substrate addition and measured at 1 min intervals for 30 mins by Ellman's method. (In general: Ellman's reagent forms a yellow product with free thiols.)
The target of test [2] is T1, Acetylcholinesterase. In words: Mixed type inhibition of electric eel AChE using acetylthiocholine iodide as substrate preincubated for 20 mins followed by substrate addition and measured at 1 min intervals for 30 mins by Dixon plot analysis.
The target of test [3] is T1, Acetylcholinesterase. In words: Mixed type inhibition of electric eel AChE using acetylthiocholine iodide as substrate preincubated for 20 mins followed by substrate addition and measured at 1 min intervals for 30 mins by Cornish-Bowden plot analysis.

T1 sequence (O42275 whole entry): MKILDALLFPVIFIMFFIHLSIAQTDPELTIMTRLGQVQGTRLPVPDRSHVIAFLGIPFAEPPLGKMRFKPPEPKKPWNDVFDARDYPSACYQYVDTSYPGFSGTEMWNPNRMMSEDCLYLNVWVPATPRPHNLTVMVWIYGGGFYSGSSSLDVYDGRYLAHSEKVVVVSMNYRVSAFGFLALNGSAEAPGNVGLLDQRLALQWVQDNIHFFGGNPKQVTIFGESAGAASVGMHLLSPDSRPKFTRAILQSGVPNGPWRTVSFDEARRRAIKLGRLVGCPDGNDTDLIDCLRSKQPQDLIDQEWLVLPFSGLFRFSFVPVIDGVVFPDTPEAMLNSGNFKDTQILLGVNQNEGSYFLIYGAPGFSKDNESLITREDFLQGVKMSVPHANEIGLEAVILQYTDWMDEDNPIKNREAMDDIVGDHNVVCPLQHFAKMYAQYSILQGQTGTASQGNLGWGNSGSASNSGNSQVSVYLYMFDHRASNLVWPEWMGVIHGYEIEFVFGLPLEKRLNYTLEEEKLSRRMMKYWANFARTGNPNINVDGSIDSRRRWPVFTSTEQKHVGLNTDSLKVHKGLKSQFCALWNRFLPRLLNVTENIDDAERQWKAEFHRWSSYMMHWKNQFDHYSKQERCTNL

As a reminder, the IC50 is the concentration at which inhibition is half-maximal. As usually defined, the Ki is a measure of affinity in units of concentration, obtained from inhibition or displacement. The low end stands for higher affinity, the high end for lower affinity. As for `CCCCCCCCCCCCCCCCC/C=C/C(=O)O`, at Acetylcholinesterase [1] (read-out: IC50), the IC50 is 5 µM. The Ki was found to be 1.51 µM at Acetylcholinesterase [2] and 7.15 µM on Acetylcholinesterase [3].
In the case of `CCCCCCCCCCCCCCCCCC(=O)O` [STEARIC ACID], the half-inhibitory concentration (IC50) on Acetylcholinesterase [1] (read-out: IC50) came out at 7.5 µM. Moreover, the Ki on Acetylcholinesterase [2] came out at 4.4 µM; at Acetylcholinesterase [3], 3.62 µM.
Consider `CCCCCCCCCCCCC/C=C/C(=O)O`, for which the IC50 at Acetylcholinesterase [1] (read-out: IC50) is 7.9 µM.
On to `CCCCCCCCCCCCCCCCCCCC(=O)O` [ARACHIDIC ACID], for which the half-maximal inhibitory concentration (IC50) at Acetylcholinesterase [1] (read-out: IC50) was found to be 12.8 µM.
As for `CCCCCCCCCCCCCCCCCCCCCC(=O)O` [BEHENIC ACID], the half-inhibitory concentration (IC50) entry on Acetylcholinesterase [1] is listed as “Nd(Insoluble)”.
Take `CCCCCCCCCCCCCCCC(=O)O` [PALMITIC ACID]: the IC50 at Acetylcholinesterase [1] (read-out: IC50) amounted to 10.1 µM.
In the case of `CCCCCCCCCCCCCCCCCCC/C=C/C(=O)O`, the IC50 on Acetylcholinesterase [1] (read-out: IC50) came to 11.7 µM.
For `CCCCCCCCCCCCCCC/C=C/C(=O)O`, the half-inhibitory concentration (IC50) at Acetylcholinesterase [1] (read-out: IC50) stood at 4.3 µM. The figures for the inhibition constant Ki on Acetylcholinesterase [2] and on Acetylcholinesterase [3] were 3.21 µM and 5.51 µM, respectively.

(Values after ChEMBL document CHEMBL4261594, “Unexpected AChE inhibitory activity of (2E)α,β-unsaturated fatty acids” (Bioorg Med Chem Lett, 2018).)
